From ChEMBL document CHEMBL2046372, “Design and synthesis of pyrrolo[3,2-d]pyrimidine human epidermal growth factor receptor 2 (HER2)/epidermal growth factor receptor (EGFR) dual inhibitors: exploration of novel back-pocket binders” (J Med Chem, 2012)
Activity calls are given as the source filed them. The rule behind the calls is not given here.

What was measured:
[1] = target: Epidermal growth factor receptor (Homo sapiens, UniProt P00533); experiment: Inhibition of N-terminus peptide-tagged human recombinant EGFR expressed using baculovirus infection system using [gamma-33P]-ATP preincubated with compound for 5 mins measured after 10 mins by scintillation counting
[2] = target: T1, Receptor tyrosine-protein kinase erbB-2 (Homo sapiens, UniProt P04626); experiment: Pseudo-irreversible inhibition of N-terminus peptide-tagged human recombinant HER2 expressed using baculovirus infection system using [gamma-33P]-ATP preincubated with compound for 5 mins at 10 times IC50 concentration measured after 10 mins by scintillation counting
[3] = target: T1, Receptor tyrosine-protein kinase erbB-2; experiment: Inhibition of N-terminus peptide-tagged human recombinant HER2 expressed using baculovirus infection system using [gamma-33P]-ATP preincubated with compound for 5 mins measured after 10 mins by scintillation counting
BT-474 = experiment: Growth inhibition of human BT474 cells overexpressing HER2 gene after 5 days; format: functional; settings: BT-474, 120 h
[4] = Metabolic stability in mouse liver microsomes at 1 umol/L after 20 mins by HPLC analysis; format: ADME, Microsome; settings: read-out: Stability
[5] = Metabolic stability in human liver microsomes at 1 umol/L after 20 mins by HPLC analysis; format: ADME, Microsome; settings: read-out: Stability
CYP3A4 = CYP3A4 (Homo sapiens, UniProt P08684); experiment: Inhibition of CYP3A4 at 10 uM after 15 mins; format: ADME
CYP3A4, sequence (P08684 whole entry): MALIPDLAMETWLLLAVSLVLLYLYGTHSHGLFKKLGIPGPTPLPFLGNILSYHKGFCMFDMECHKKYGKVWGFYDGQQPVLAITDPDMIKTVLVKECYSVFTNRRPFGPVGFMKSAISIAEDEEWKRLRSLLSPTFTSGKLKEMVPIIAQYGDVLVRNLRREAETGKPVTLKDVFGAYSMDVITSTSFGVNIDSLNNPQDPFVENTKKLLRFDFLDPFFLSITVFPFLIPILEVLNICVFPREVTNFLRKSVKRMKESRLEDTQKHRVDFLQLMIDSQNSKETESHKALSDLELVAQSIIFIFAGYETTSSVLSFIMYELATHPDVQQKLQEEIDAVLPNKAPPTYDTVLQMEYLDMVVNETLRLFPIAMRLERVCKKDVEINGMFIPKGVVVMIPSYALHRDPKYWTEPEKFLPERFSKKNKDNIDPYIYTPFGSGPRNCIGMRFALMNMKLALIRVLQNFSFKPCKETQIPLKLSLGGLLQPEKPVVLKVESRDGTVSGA

T1 sequence (P04626 whole entry): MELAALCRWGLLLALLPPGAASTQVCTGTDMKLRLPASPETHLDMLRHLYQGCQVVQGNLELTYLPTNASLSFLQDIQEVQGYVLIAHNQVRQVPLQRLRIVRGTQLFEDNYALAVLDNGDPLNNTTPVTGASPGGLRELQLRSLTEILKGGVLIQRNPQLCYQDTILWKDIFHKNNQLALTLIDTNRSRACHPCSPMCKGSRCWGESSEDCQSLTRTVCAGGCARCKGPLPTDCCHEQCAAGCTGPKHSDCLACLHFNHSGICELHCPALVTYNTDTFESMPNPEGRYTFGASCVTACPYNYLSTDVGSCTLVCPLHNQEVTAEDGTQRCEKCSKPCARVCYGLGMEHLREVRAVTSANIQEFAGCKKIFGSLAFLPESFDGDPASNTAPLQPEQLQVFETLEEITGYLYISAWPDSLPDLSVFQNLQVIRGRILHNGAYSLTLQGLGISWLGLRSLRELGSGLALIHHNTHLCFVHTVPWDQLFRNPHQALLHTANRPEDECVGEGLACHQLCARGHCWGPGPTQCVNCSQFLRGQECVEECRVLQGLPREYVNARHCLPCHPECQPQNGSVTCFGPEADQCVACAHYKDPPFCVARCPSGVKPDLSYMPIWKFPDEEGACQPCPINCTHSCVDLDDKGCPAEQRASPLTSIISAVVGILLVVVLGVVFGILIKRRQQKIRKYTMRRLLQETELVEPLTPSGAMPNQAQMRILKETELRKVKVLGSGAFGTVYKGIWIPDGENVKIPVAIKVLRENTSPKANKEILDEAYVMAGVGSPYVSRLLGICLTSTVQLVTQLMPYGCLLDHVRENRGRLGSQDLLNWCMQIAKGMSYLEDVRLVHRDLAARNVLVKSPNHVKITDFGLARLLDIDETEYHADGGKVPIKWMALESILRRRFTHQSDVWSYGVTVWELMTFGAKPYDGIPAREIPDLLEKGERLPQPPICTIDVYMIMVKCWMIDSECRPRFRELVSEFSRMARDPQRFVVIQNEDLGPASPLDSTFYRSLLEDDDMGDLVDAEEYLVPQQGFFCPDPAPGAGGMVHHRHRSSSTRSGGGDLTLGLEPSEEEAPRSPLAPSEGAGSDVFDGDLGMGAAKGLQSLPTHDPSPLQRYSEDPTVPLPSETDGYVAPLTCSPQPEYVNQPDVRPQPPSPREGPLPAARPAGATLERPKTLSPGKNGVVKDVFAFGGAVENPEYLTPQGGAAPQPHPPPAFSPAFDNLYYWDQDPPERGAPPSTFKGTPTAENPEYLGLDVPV
Epidermal growth factor receptor, sequence (P00533 whole entry): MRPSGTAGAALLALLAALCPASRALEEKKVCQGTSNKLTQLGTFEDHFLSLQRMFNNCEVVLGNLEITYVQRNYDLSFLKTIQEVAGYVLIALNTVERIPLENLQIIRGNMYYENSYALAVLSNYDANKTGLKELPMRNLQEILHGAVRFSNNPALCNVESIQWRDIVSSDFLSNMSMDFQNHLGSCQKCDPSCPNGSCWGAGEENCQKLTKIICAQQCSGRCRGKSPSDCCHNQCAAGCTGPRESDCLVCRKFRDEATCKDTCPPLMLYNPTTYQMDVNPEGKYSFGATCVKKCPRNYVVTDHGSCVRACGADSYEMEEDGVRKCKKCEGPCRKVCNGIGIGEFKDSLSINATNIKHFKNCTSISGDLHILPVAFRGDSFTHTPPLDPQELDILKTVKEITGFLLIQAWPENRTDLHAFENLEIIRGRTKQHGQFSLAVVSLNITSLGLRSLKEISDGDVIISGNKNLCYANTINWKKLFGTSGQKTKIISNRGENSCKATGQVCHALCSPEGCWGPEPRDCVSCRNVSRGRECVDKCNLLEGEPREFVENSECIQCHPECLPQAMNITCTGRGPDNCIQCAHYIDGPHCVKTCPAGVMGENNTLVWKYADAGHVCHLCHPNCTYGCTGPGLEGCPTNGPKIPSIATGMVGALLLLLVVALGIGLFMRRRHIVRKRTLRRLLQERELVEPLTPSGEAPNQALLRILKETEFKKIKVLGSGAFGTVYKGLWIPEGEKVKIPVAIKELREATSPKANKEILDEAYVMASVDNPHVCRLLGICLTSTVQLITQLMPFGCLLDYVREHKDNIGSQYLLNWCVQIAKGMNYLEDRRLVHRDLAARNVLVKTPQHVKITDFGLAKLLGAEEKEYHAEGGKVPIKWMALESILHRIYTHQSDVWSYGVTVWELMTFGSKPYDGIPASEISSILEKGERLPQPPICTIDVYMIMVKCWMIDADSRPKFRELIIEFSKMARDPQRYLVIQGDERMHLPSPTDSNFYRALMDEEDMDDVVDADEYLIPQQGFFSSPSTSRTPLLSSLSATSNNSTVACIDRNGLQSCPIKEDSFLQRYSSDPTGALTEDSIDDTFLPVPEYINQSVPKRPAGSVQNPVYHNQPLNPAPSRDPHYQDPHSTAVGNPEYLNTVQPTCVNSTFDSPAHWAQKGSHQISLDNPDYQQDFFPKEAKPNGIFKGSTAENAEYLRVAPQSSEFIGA

IC50 [1] [nM]	inhibition [2]	IC50 [3] [nM]	GI50 (BT-474) [nM]	microsomal CLint at 1 µM [4] [µL/min/mg]	microsomal CLint at 1 µM [5] [µL/min/mg]	inhibition at 0.25 h, 10 µM (CYP3A4) [%]	SMILES
960	inactive	28	1350	–	–	–	O=C1Cc2cc(Oc3ccc(Nc4ncnc5ccn(CCO)c45)cc3Cl)ccc2N1
8.8	Active	6	15	24	144	–	OCCn1ccc2ncnc(Nc3ccc(Oc4cccc5sccc45)c(Cl)c3)c21
1.9	Active	1.7	5.5	123	114	–	OCCn1ccc2ncnc(Nc3ccc(Oc4cccc5[nH]ncc45)c(Cl)c3)c21
890	inactive	150	3360	–	–	–	O=C1NCc2c(Oc3ccc(Nc4ncnc5ccn(CCO)c45)cc3Cl)cccc21
36	inactive	2.1	164	106	219	–	Cn1ncc2c(Oc3ccc(Nc4ncnc5ccn(CCO)c45)cc3Cl)cccc21
7	–	3.3	8.6	88	113	–	CC(C)(CO)C(=O)NCCn1ccc2ncnc(Nc3ccc(Oc4cccc5sncc45)c(Cl)c3)c21
21	inactive	2.5	768	–	–	–	O=C1NCc2cccc(Oc3ccc(Nc4ncnc5ccn(CCO)c45)cc3Cl)c21
7	–	2.2	9.4	145	117	62.6	CC(C)(O)C(=O)NCCn1ccc2ncnc(Nc3ccc(Oc4cccc5sncc45)c(Cl)c3)c21

Continued, molecule first:

SMILES	IC50 [1] [nM]	inhibition [2]	IC50 [3] [nM]	GI50 (BT-474) [nM]	microsomal CLint at 1 µM [4] [µL/min/mg]	microsomal CLint at 1 µM [5] [µL/min/mg]	inhibition at 0.25 h, 10 µM (CYP3A4) [%]
CC(C)(C)NC(=O)c1cccc(Oc2ccc(Nc3ncnc4ccn(CCO)c34)cc2Cl)c1	33	–	2.3	88	–	–	–
OCCn1ccc2ncnc(Nc3ccc(Oc4cccc5sncc45)c(Cl)c3)c21	4.1	Active	2.1	3.6	142	129	47.2
CC(=O)NCCn1ccc2ncnc(Nc3ccc(Oc4cccc5sncc45)c(Cl)c3)c21	2.9	–	1.6	4	100	133	57
O=C1Cc2c(cccc2Oc2ccc(Nc3ncnc4ccn(CCO)c34)cc2Cl)N1	3	Active	1.6	13	66	141	–
O=C1Cc2ccc(Oc3ccc(Nc4ncnc5ccn(CCO)c45)cc3Cl)cc2N1	2300	inactive	130	1880	–	–	–
OCCn1ccc2ncnc(Nc3ccc(Oc4cccc5[nH]ccc45)c(Cl)c3)c21	3.1	Active	2.5	36	–	204	–
O=C1Cc2cccc(Oc3ccc(Nc4ncnc5ccn(CCO)c45)cc3Cl)c2N1	–	Active	1.5	73	–	–	–
CC(C)(C(=O)NCCn1ccc2ncnc(Nc3ccc(Oc4cccc5sncc45)c(Cl)c3)c21)S(C)(=O)=O	5.5	–	2	8	76	113	49.9
O=C1NCc2cc(Oc3ccc(Nc4ncnc5ccn(CCO)c45)cc3Cl)ccc21	510	inactive	18	4080	–	–	–
OCCn1ccc2ncnc(Nc3ccc(Oc4cccc(C(F)(F)F)c4)c(Cl)c3)c21	34	–	–	–	–	–	–
O=C1NCc2ccc(Oc3ccc(Nc4ncnc5ccn(CCO)c45)cc3Cl)cc21	7.8	Active	1.3	43	–	–	–
CC(C)(C)C(=O)NCCn1ccc2ncnc(Nc3ccc(Oc4cccc5sncc45)c(Cl)c3)c21	21	–	6.1	9.2	108	94	33.5
O=C(NCCn1ccc2ncnc(Nc3ccc(Oc4cccc5sncc45)c(Cl)c3)c21)[C@@H]1CCCN1	3	–	0.92	5.8	74	61	35
